# Laboratory results taken from patent publication US11000509B2, “Methods and compositions for daily ophthalmic administration of phentolamine to improve visual performance” (Ocuphire Pharma, Inc., priority 2013, dated 2021).
# Structures can show the parent of a compound that is named as a salt. Where two headings read alike, the source gives them in different places.
# Assays:
# [1] = tested on: eyes of patients suffering from severe night vision difficulty; assay: Example 1 clinical study: reduction in pupil diameter; type: in vivo, humans; details: from percentage of eyes with at least 10% reduction in pupil diameter after the last dose, second period, 1% (w/v) (FIG. 4B)
# Source text: Sixty patients with normal day vision (i.e., 20/40 or better) but which suffer from severe night vision difficulty were enrolled in the study. During the first period of the study, patients were randomized into three groups. The groups received either placebo, 0.5% (w/v) phentolamine mesylate, or 1.0% (w/v) phentolamine mesylate once daily for 15 days. The patients were observed on days 1, 4, 8, and 15 prior to administering the ophthalmic solution of phentolamine mesylate and then observed again two hours after the ophthalmic solution of phentolamine mesylate was administered. During the second period of the study, all sixty patients were instructed to administer an ophthalmic solution of phentolamine mesylate (1% (w/v)) as needed, but no more than once daily to each eye. The ophthalmic solution of phentolamine mesylate contained: 1% (w/v) phentolamine mesylate, 4% (w/v) mannitol, 3 mM sodium acetate, and water. The placebo was a solution containing 4% (w/v) mannitol, 3 mM sodium acetate, and water.
# [2] = tested on: eyes of patients with pupil size in dim light of greater than 7 mm; assay: Example 2 clinical study: monocular high contrast visual acuity under photopic conditions (100% tint chart); type: in vivo, humans
# Protocol: (§1) Sixteen patients were randomized into four groups (of four subjects each). Each group was treated on three successive study visits separated by at least 4 days with one drop of ophthalmic oxymetazoline solution (Visine LR®) in each eye followed by one drop test article in each eye. The test article was a 0.2% (w/v) phentolamine mesylate solution, 0.4% (w/v) phentolamine mesylate solution, 0.8% (w/v) phentolamine mesylate solution, or placebo. Test articles contained the designed amount of phentolamine mesylate in a solution of Tears Naturale II® (from Alcon Labs). Placebo was just Tears Naturale II® (from Alcon Labs). Tears Naturale II® (from Alcon Labs) contains Dextran 70 (0.1% by weight), Hydroxypropyl Methylcellulose 2910 (0.3% by weight), Polyquarternium-1 (0.001% by weight), potassium chloride, water (purified), sodium borate, sodium chloride, and hydrochloric acid and/or sodium hydroxide as necessary to adjust the pH. The patients' eye redness and pupil diameters were recorded at baseline (i.e., prior to treatment administration), and at 30 minutes, 1 hour, 2 hours, 4 hours, and 8 hours after administration of test articles. The incidence of any treatment-emergent adverse events was also recorded. Total study duration was approximately nine hours.
# (§2) Eye redness of patients' eyes was evaluated by the research assistant and recorded as a single integer of value 0 (no redness) to 4 (extreme redness) at baseline and each time point after treatment. Pupil diameters were measured to within 0.1 mm for each eye at baseline and each subsequent time point using a NeurOptics™ pupilometer. Monocular high contrast visual acuity was measured for each eye under photopic conditions at baseline and each subsequent time point in a darkened room using a Precision Vision™ High Contrast (100% tint) Visual Acuity Chart (Catalog #2102) backlit by the Precision Vision Illumination Box. Monocular low contrast visual acuity was measured for each eye under photopic conditions at baseline and each subsequent time point in a darkened room using a Precision Vision™ Low Contrast (5% tint) Visual Acuity Chart (Catalog #2186) backlit by the Precision Vision Illumination Box. Effect of treatment on glare was assessed using an experimental test method consisting of a panel with a high wattage central light emitting diode (LED) and a set of 7 lower wattage red LEDs radiating horizontally and vertically from the central light.
# Comparisons of changes in mean values within treatment groups were tested for significance using two-tailed paired two sample t-tests with a threshold for significance set at p<0.01 (Bonferroni Correction for multiple paired t-tests). Differences between treatment groups with respect to mean values for pupil size over the course of the study were tested for significance using repeated measure ANOVA (which discards data from subjects lacking any data points). Differences in mean eye redness between treatment groups were evaluated using Kruskal-Wallis nonparametric testing. Differences in means between treatment groups at individual time points were tested for significance using one-way ANOVA.
# [3] = tested on: eyes of patients with pupil size in dim light of greater than 7 mm; parameters: species or system humans; details: human, in vivo
# Protocol: as §1, §2
# Comparisons of changes in mean values within treatment groups were tested for significance using two-tailed paired two sample t-tests with a threshold for significance set at p<0.01 (Bonferroni Correction for multiple paired t-tests). […] Differences in mean eye redness between treatment groups were evaluated using Kruskal-Wallis nonparametric testing. […]
# [4] = 0.2% (w/v) solution, 30 min after treatment
# [5] = 0.2% (w/v) solution, 1 hour after treatment
# [6] = 0.2% (w/v) solution, 2 hours after treatment
# [7] = 0.2% (w/v) solution, 4 hours after treatment
# [8] = 0.2% (w/v) solution, 8 hours after treatment
# [9] = 0.2% (w/v) solution, Baseline, prior to treatment
# [10] = 0.4% (w/v) solution, 30 min after treatment
# [11] = 0.4% (w/v) solution, 1 hour after treatment
# [12] = 0.4% (w/v) solution, 2 hours after treatment
# [13] = 0.4% (w/v) solution, 4 hours after treatment
# [14] = 0.4% (w/v) solution, 8 hours after treatment
# [15] = 0.4% (w/v) solution, Baseline, prior to treatment
# [16] = 0.8% (w/v) solution, 30 min after treatment
# [17] = 0.8% (w/v) solution, 1 hour after treatment
# [18] = 0.8% (w/v) solution, 2 hours after treatment
# [19] = 0.8% (w/v) solution, 4 hours after treatment
# [20] = 0.8% (w/v) solution, 8 hours after treatment
# [21] = 0.8% (w/v) solution, Baseline, prior to treatment
smiles,measurement,setting,value
"Cc1ccc(N(CC2=NCCN2)c2cccc(O)c2)cc1 [Phentolamine Mesylate, phentolamine mesylate]",pharmacokinetic half-life,[1],approximately two
same,Maximum high contrast visual acuity,[2]; [4],0.22 LogMar
same,Mean high contrast visual acuity,[2]; [4],0.05 LogMar
same,Minimum high contrast visual acuity,[2]; [4],−0.32 LogMar
same,Maximum high contrast visual acuity,[2]; [5],0.22 LogMar
same,Mean high contrast visual acuity,[2]; [5],0.08 LogMar
same,Minimum high contrast visual acuity,[2]; [5],−0.20 LogMar
same,Maximum high contrast visual acuity,[2]; [6],0.26 LogMar
same,Mean high contrast visual acuity,[2]; [6],0.08 LogMar
same,Minimum high contrast visual acuity,[2]; [6],−0.22 LogMar
same,Maximum high contrast visual acuity,[2]; [7],0.22 LogMar
same,Mean high contrast visual acuity,[2]; [7],0.09 LogMar
same,Minimum high contrast visual acuity,[2]; [7],−0.20 LogMar
same,Maximum high contrast visual acuity,[2]; [8],0.22 LogMar
same,Mean high contrast visual acuity,[2]; [8],0.08 LogMar
same,Minimum high contrast visual acuity,[2]; [8],−0.32 LogMar
same,Maximum high contrast visual acuity,[2]; [9],0.22 LogMar
same,Mean high contrast visual acuity,[2]; [9],0.04 LogMar
same,Minimum high contrast visual acuity,[2]; [9],−0.32 LogMar
same,Maximum high contrast visual acuity,[2]; [10],0.22 LogMar
same,Mean high contrast visual acuity,[2]; [10],0.12 LogMar
same,Minimum high contrast visual acuity,[2]; [10],−0.20 LogMar
same,Maximum high contrast visual acuity,[2]; [11],0.26 LogMar
same,Mean high contrast visual acuity,[2]; [11],0.11 LogMar
same,Minimum high contrast visual acuity,[2]; [11],−0.20 LogMar
same,Maximum high contrast visual acuity,[2]; [12],0.30 LogMar
same,Mean high contrast visual acuity,[2]; [12],0.14 LogMar
same,Minimum high contrast visual acuity,[2]; [12],−0.10 LogMar
same,Maximum high contrast visual acuity,[2]; [13],0.30 LogMar
same,Mean high contrast visual acuity,[2]; [13],0.15 LogMar
same,Minimum high contrast visual acuity,[2]; [13],−0.11 LogMar
same,Maximum high contrast visual acuity,[2]; [14],0.30 LogMar
same,Mean high contrast visual acuity,[2]; [14],0.13 LogMar
same,Minimum high contrast visual acuity,[2]; [14],−0.18 LogMar
same,Maximum high contrast visual acuity,[2]; [15],0.22 LogMar
same,Mean high contrast visual acuity,[2]; [15],0.09 LogMar
same,Minimum high contrast visual acuity,[2]; [15],−0.24 LogMar
same,Maximum high contrast visual acuity,[2]; [16],0.22 LogMar
same,Mean high contrast visual acuity,[2]; [16],0.11 LogMar
same,Minimum high contrast visual acuity,[2]; [16],−0.16 LogMar
same,Maximum high contrast visual acuity,[2]; [17],0.26 LogMar
same,Mean high contrast visual acuity,[2]; [17],0.12 LogMar
same,Minimum high contrast visual acuity,[2]; [17],−0.10 LogMar
same,Maximum high contrast visual acuity,[2]; [18],0.30 LogMar
same,Mean high contrast visual acuity,[2]; [18],0.12 LogMar
same,Minimum high contrast visual acuity,[2]; [18],−0.16 LogMar
same,Maximum high contrast visual acuity,[2]; [19],0.30 LogMar
same,Mean high contrast visual acuity,[2]; [19],0.12 LogMar
same,Minimum high contrast visual acuity,[2]; [19],−0.20 LogMar
same,Maximum high contrast visual acuity,[2]; [20],0.30 LogMar
same,Mean high contrast visual acuity,[2]; [20],0.13 LogMar
same,Minimum high contrast visual acuity,[2]; [20],−0.20 LogMar
same,Maximum high contrast visual acuity,[2]; [21],0.22 LogMar
same,Mean high contrast visual acuity,[2]; [21],0.06 LogMar
same,Minimum high contrast visual acuity,[2]; [21],−0.41 LogMar
same,maximal mean increase in high contrast visual acuity,"[2]; 0.8%, at 4 and 8 hours",0.06 Log Mar
same,improvement in high contrast vision,"[2]; 0.8%, at 4 and 8 hours, equivalent of the maximal mean increase",~3 letters on a Snellen chart
same,Range of eye redness scores,[3],0-1
same,eye redness,[3],modest increase in eye redness
same,mean eye redness versus placebo,[3],did not differ from placebo
same,Range of eye redness scores,[3]; 30 min,0-1
